Reference: article PMC7168933, “Design, Synthesis and Biochemical Evaluation of Novel Ethanoanthracenes and Related Compounds to Target Burkitt’s Lymphoma” (Pharmaceuticals, 2020)

Tests used:
[1] = test system: DG-75 Burkitt lymphoma cell line (EBV−, chemoresistant); assay: cells; conditions: Homo sapiens, DG-75, 48 h; for viability at 1 µM: read-out: DG-75 Cell Viability % 1 μM, 1 μM, 48 h; for viability at 10 µM: read-out: DG-75 Cell Viability % 10 μM, 10 μM, 48 h
[2] = test system: MUTU-1 Burkitt lymphoma cell line (EBV+); assay: cells; conditions: Mutu-1, 24 h; for IC50: read-out: IC50 MUTU-I 24 h; for viability at 1 µM: read-out: MUTU-1 Cell Viability % 1 μM, 1 μM, 24 h; for viability at 10 µM: read-out: MUTU-1 Cell Viability % 10 μM, 10 μM, 24 h

With O=C(c1ccccc1)c1ccc(N2C(=O)C3C4c5ccccc5C(/C=C/[N+](=O)[O-])(c5ccccc54)C3C2=O)cc1 (stereo not shown) [Compound 16i, (E)-13-(4-Benzoylphenyl)-9-(2-nitrovinyl)-9,10-dihydro-9,10-[3,4]epipyrroloanthracene-12,14-dione] the melting point was 232 to 234 °C, the viability at 1 µM [1] was 77.5% and the viability at 10 µM [1] was 2.7%. For the same compound, the IC50 [2] was 0.24 µM, the viability at 1 µM [2] was 2% and the viability at 10 µM [2] was 1.2%.

In the case of COc1cc(OC)cc(N2C(=O)C3C4c5ccccc5C(/C=C/[N+](=O)[O-])(c5ccccc54)C3C2=O)c1 (stereo not shown) [Compound 16j, (E)-13-(3,5-Dimethoxyphenyl)-9-(2-nitrovinyl)-9,10-dihydro-9,10-[3,4]epipyrroloanthracene-12,14-dione], the melting point is reported as 268 to 271 °C, the viability at 1 µM [1] is reported as 33.5% and the viability at 10 µM [1] is reported as 0.16%. For the same compound, the IC50 [2] was 0.26 µM, the viability at 1 µM [2] was 4.2% and the viability at 10 µM [2] was 5.4%.

O=C1C2C3c4ccccc4C(/C=C/[N+](=O)[O-])(c4ccccc43)C2C(=O)N1c1cccc(Cl)c1 (stereo not shown) [Compound 16k, (E)-13-(3-Chlorophenyl)-9-(2-nitrovinyl)-9,10-dihydro-9,10-[3,4]epipyrroloanthracene-12,14-dione] gave a melting point of 258 to 261 °C, a viability at 1 µM [1] of 69% and a viability at 10 µM [1] of 0%. The viability at 1 µM [2] was 2.7% and the viability at 10 µM [2] was 0.84%.

With O=C1C2C3c4ccccc4C(/C=C/[N+](=O)[O-])(c4ccccc43)C2C(=O)N1c1ccccc1O (stereo not shown) [Compound 16l, (E)-13-(2-Hydroxyphenyl)-9-(2-nitrovinyl)-9,10-dihydro-9,10-[3,4]epipyrroloanthracene-12,14-dione] the melting point was 203 to 206 °C, the viability at 1 µM [1] was 59.2% and the viability at 10 µM [1] was 0%. The viability at 1 µM [2] was 2.3% and the viability at 10 µM [2] was 0.61%.

For CC(=O)Oc1cccc(N2C(=O)C3C4c5ccccc5C(/C=C/[N+](=O)[O-])(c5ccccc54)C3C2=O)c1 (stereo not shown) [Compound 16m, (E)-3-(9-(2-Nitrovinyl)-12,14-dioxo-9,10-dihydro-9,10-[3,4]epipyrroloanthracen-13-yl)phenyl acetate], the melting point was 246 to 248 °C, the viability at 1 µM [1] was 35.9% and the viability at 10 µM [1] was 0%. It also gave an IC50 [2] of 0.23 µM, a viability at 1 µM [2] of 2% and a viability at 10 µM [2] of 1.2%.

With Nc1ccc(N2C(=O)C3C4c5ccccc5C(/C=C/[N+](=O)[O-])(c5ccccc54)C3C2=O)cc1 (stereo not shown) [Compound 16n, (E)-13-(4-Aminophenyl)-9-(2-nitrovinyl)-9,10-dihydro-9,10-[3,4]epipyrroloanthracene-12,14-dione] the melting point was > 300 °C, the viability at 1 µM [1] was 20.8% and the viability at 10 µM [1] was 0.18%. The IC50 [2] was 0.3 µM, the viability at 1 µM [2] was 1.7% and the viability at 10 µM [2] was 3.7%.

C/C(=C\C12c3ccccc3C(c3ccccc31)C1C(=O)N(c3ccccc3)C(=O)C12)[N+](=O)[O-] (stereo not shown) [Compound 17a, (E)-9-(2-Nitroprop-1-en-1-yl)-13-phenyl-9,10-dihydro-9,10-[3,4]epipyrroloanthracene-12,14-dione] showed a melting point of 263 to 266 °C, a viability at 1 µM [1] of 78.3% and a viability at 10 µM [1] of 88.9%. The viability at 1 µM [2] was 79.8% and the viability at 10 µM [2] was 68.6%.

In the case of CC/C(=C\C12c3ccccc3C(c3ccccc31)C1C(=O)N(c3ccccc3)C(=O)C12)[N+](=O)[O-] (stereo not shown) [Compound 17b, (E)-9-(2-Nitrobut-1-en-1-yl)-13-phenyl-9,10-dihydro-9,10-[3,4]epipyrroloanthracene-12,14-dione], the melting point is reported as 259 to 263 °C, the viability at 1 µM [1] is reported as 96.4% and the viability at 10 µM [1] is reported as 99.9%. For the same compound, the viability at 1 µM [2] was 92.6% and the viability at 10 µM [2] was 83.4%.

For C/C(=C\C12c3ccccc3C(c3ccccc31)C1C(=O)N(c3ccc(Cl)cc3)C(=O)C12)[N+](=O)[O-] (stereo not shown) [Compound 17c, (E)-13-(4-Chlorophenyl)-9-(2-nitroprop-1-en-1-yl)-9,10-dihydro-9,10-[3,4]epipyrroloanthracene-12,14-dione], the melting point was 298 to 300 °C, the viability at 1 µM [1] was 96.6% and the viability at 10 µM [1] was 86.3%. It also gave a viability at 1 µM [2] of 78% and a viability at 10 µM [2] of 77.6%.

With CC/C(=C\C12c3ccccc3C(c3ccccc31)C1C(=O)N(c3ccc(Cl)cc3)C(=O)C12)[N+](=O)[O-] (stereo not shown) [Compound 17d, (E)-13-(4-Chlorophenyl)-9-(2-nitrobut-1-en-1-yl)-9,10-dihydro-9,10-[3,4]epipyrroloanthracene-12,14-dione] the melting point was 275 to 279 °C, the viability at 1 µM [1] was 96.6% and the viability at 10 µM [1] was 78.4%. The viability at 1 µM [2] was 102% and the viability at 10 µM [2] was 99.9%.

With CC/C(=C\C12c3ccccc3C(c3ccccc31)C1C(=O)N(c3ccc(OC)cc3)C(=O)C12)[N+](=O)[O-] (stereo not shown) [Compound 17f] the melting point was 254 to 256 °C, the viability at 1 µM [1] was 91.4% and the viability at 10 µM [1] was 85.1%. The viability at 1 µM [2] was 86.5% and the viability at 10 µM [2] was 84.5%.

For C/C(=C\C12c3ccccc3C(Cl)(c3ccccc31)C1C(=O)N(c3ccccc3)C(=O)C12)[N+](=O)[O-] (stereo not shown) [Compound 17g, (E)-9-Chloro-10-(2-nitroprop-1-en-1-yl)-13-phenyl-9,10-dihydro-9,10-[3,4]epipyrroloanthracene-12,14-dione], the melting point was 268 to 271 °C, the viability at 1 µM [1] was 85.3% and the viability at 10 µM [1] was 84.3%. It also gave a viability at 1 µM [2] of 88% and a viability at 10 µM [2] of 78.5%.

Compound CC/C(=C\C12c3ccccc3C(Cl)(c3ccccc31)C1C(=O)N(c3ccccc3)C(=O)C12)[N+](=O)[O-] (stereo not shown) [Compound 17h, (E)-9-Chloro-10-(2-nitrobut-1-en-1-yl)-13-phenyl-9,10-dihydro-9,10-[3,4]epipyrroloanthracene-12,14-dione] has a melting point of 261 to 262 °C, a viability at 1 µM [1] of 89.2% and a viability at 10 µM [1] of 90.3%. The viability at 1 µM [2] was 107% and the viability at 10 µM [2] was 96.3%.

O=C1C2C3c4ccccc4C(/C=C/[N+](=O)[O-])(c4ccccc43)C2C(=O)N1Cc1ccccc1 (stereo not shown) [Compound 17i, (E)-13-Benzyl-9-(2-nitrovinyl)-9,10-dihydro-9,10-[3,4]epipyrroloanthracene-12,14-dione] gave a melting point of 232 to 236 °C, a viability at 1 µM [1] of 93.1% and a viability at 10 µM [1] of 0.67%. For the same compound, the viability at 1 µM [2] was 74.9% and the viability at 10 µM [2] was 0.86%.

Compound C/C(=C\C12c3ccccc3C(c3ccccc31)C1C(=O)N(Cc3ccccc3)C(=O)C12)[N+](=O)[O-] (stereo not shown) [Compound 17j, (E)-13-Benzyl-9-(2-nitroprop-1-en-1-yl)-9,10-dihydro-9,10-[3,4]epipyrroloanthracene-12,14-dione] has a melting point of 232 to 236 °C, a viability at 1 µM [1] of 104% and a viability at 10 µM [1] of 87.9%. For the same compound, the viability at 1 µM [2] was 94.6% and the viability at 10 µM [2] was 85.6%.

For CC/C(=C\C12c3ccccc3C(c3ccccc31)C1C(=O)N(Cc3ccccc3)C(=O)C12)[N+](=O)[O-] (stereo not shown) [Compound 17k, (E)-13-Benzyl-9-(2-nitrobut-1-en-1-yl)-9,10-dihydro-9,10-[3,4]epipyrroloanthracene-12,14-dione], the melting point was 188 to 199 °C, the viability at 1 µM [1] was 74.8% and the viability at 10 µM [1] was 96%. It also gave a viability at 1 µM [2] of 80.4% and a viability at 10 µM [2] of 94%.

In the case of COc1cc(CN2C(=O)C3C4c5ccccc5C(/C=C(\C)[N+](=O)[O-])(c5ccccc54)C3C2=O)cc(OC)c1OC (stereo not shown) [Compound 17l, (E)-9-(2-Nitroprop-1-en-1-yl)-13-(3,4,5-trimethoxybenzyl)-9,10-dihydro-9,10-[3,4]epipyrroloanthracene-12,14-dione], the melting point is reported as 227 to 229 °C, the viability at 1 µM [1] is reported as 81.9% and the viability at 10 µM [1] is reported as 82.1%. For the same compound, the viability at 1 µM [2] was 66.8% and the viability at 10 µM [2] was 77.3%.

In the case of CC/C(=C\C12c3ccccc3C(c3ccccc31)C1C(=O)N(Cc3cc(OC)c(OC)c(OC)c3)C(=O)C12)[N+](=O)[O-] (stereo not shown) [Compound 17m, (E)-9-(2-Nitrobut-1-en-1-yl)-13-(3,4,5-trimethoxybenzyl)-9,10-dihydro-9,10-[3,4]epipyrroloanthracene-12,14-dione], the melting point is reported as 224 to 229 °C, the viability at 1 µM [1] is reported as 82.2% and the viability at 10 µM [1] is reported as 77.8%. The viability at 1 µM [2] was 82.2% and the viability at 10 µM [2] was 66.8%.

Work on O=C1C2C3c4ccccc4C(/C=C/[N+](=O)[O-])(c4ccccc43)C2C(=O)N1CCc1ccccc1 (stereo not shown) [Compound 17n] yielded a melting point of 152 to 156 °C, a viability at 1 µM [1] of 19.9% and a viability at 10 µM [1] of 0.07%. It also gave an IC50 [2] of 0.26 µM, a viability at 1 µM [2] of 2.8% and a viability at 10 µM [2] of 2%.

O=c1n(-c2ccccc2)c(=O)n2n1C1c3ccccc3C2(/C=C/[N+](=O)[O-])c2ccccc21 [Compound 18, (E)-9-(2-Nitrovinyl)-14-phenyl-9,10-dihydro-9,10-[1,2]epitriazoloanthracene-13,15-dione] gave a melting point of 168 to 169 °C, a viability at 1 µM [1] of 87.3% and a viability at 10 µM [1] of 13.2%. It also gave a viability at 1 µM [2] of 75% and a viability at 10 µM [2] of 13.2%.

For CC(=O)OC1(C#N)CC2c3ccccc3C1(/C=C/[N+](=O)[O-])c1ccccc12 (stereo not shown) [Compound 19d, (E)-11-Cyano-10-(2-nitrovinyl)-9,10-dihydro-9,10-ethanoanthracen-11-yl acetate], the melting point was 168 to 170 °C, the viability at 1 µM [1] was 99.4% and the viability at 10 µM [1] was 1%. The viability at 1 µM [2] was 48.9% and the viability at 10 µM [2] was 0.69%.

With COC(=O)C1C2c3ccccc3C(/C=C/[N+](=O)[O-])(c3ccccc32)C1C(=O)OC (stereo not shown) [Compound 19e, Dimethyl (E)-9-(2-nitrovinyl)-9,10-dihydro-9,10-ethanoanthracene-11,12-dicarboxylate] the melting point was 141 to 143 °C, the viability at 1 µM [1] was 102% and the viability at 10 µM [1] was 10.3%. It also gave a viability at 1 µM [2] of 84.7% and a viability at 10 µM [2] of 10.7%.
